This is an account of results in the METLIN SMRT retention time set (Domingo-Almenara et al. 2019).

A short description of this data set: gradient 5% acetonitrile 3 min, to 50% in 2 min, to 85% in 15 min, held 3 min, 100 µL/min. The following applies: column: Zorbax Extend-C18 2.1 x 50 mm; eluents: water / acetonitrile, 0.1% formic acid. The method, boiled down:
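Retention times of pure standards were taken from adduct peaks that were selected by computer and manually inspected. Over 3 months, mixtures of ~100 molecules were run by HPLC–quadrupole time-of-flight mass spectrometry in positive and negative ionization mode. The Zorbax Extend-C18 column (2.1 × 50 mm, 1.8 μm) ran at 100 μL/min in water and acetonitrile, each containing 0.1% formic acid, with 40 μL dead volume and 900 μL dwell volume.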
In turn, `COc1ccc(NC(=O)CCc2c(C)nn(-c3cc(N(C)C)ncn3)c2C)c(OC)c1` came in with an RP-LC retention time of 776 s. As to `Cc1cccc(NC(=O)Cn2c(=O)n(-c3ccccc3)c3ncccc32)c1C`, the RP-LC retention time was found to be 832 s. `O=C(Cc1csc(NC(=O)c2cnccn2)n1)Nc1nc2ccccc2s1` displayed an RP-LC retention time of 734 s. Molecule `CCc1ccccc1NC(=O)N1CCc2nc[nH]c2C1` yielded an RP-LC retention time of 575 s. Take `C[C@@H](c1ncncc1F)[C@@](O)(Cn1cncn1)c1ccc(F)cc1F`: the RP-LC retention time turned out to be 870 s. The same measure for `COc1ccc(N2CCN(C(=O)c3cn4ccc(C)cc4n3)CC2)cc1`: 615 s; for `CCCN1C(=O)COc2ccc(-c3noc(/C=C/c4ccccc4OC)n3)cc21`: 1270 s; for `Fc1ccc(OCc2nc(C3CCCN3)no2)cc1` (stereo unspecified): 564 s.

Molecule `CCOc1ccccc1NC(=O)N1CCCC(Cn2c(C)nc3cccnc32)C1` (stereo unspecified) returned an RP-LC retention time of 618 s. For `CC(C)Cc1nc(C2CN(C(=O)CC3CCCC3)CC23CCCC3)no1` (stereo unspecified), the RP-LC retention time turned out to be 1210 s. `CCCOc1nccnc1N1CCC(N(C)C(=O)Cc2cccnc2)C1` (stereo unspecified): the RP-LC retention time was determined as 599 s.

For the molecule `CCc1ccc(-c2noc(Cn3cnc4c(nnn4-c4ccccc4OC)c3=O)n2)cc1`, the RP-LC retention time amounted to 1040 s. The molecule `CS(=O)(=O)Nc1ccc(N2CCCCS2(=O)=O)cc1` displayed an RP-LC retention time of 615 s. `Cc1ccc(N2C(=O)CN(S(C)(=O)=O)CC2(C)C(=O)NCc2ccccc2)c(C)c1` (stereo unspecified) had an RP-LC retention time of 838 s. As to `CCOc1ccc(C(=O)Nc2ccc3c(c2)Sc2ncccc2C(=O)N3C)cc1`, the RP-LC retention time was determined as 826 s. In turn, `Cc1noc(-c2cccc(OC3CN(C(=O)c4cccn4C)C3)c2)n1` displayed an RP-LC retention time of 898 s. Molecule `O=C(NCc1cccc(Cl)c1)c1c(O)c2cccnc2n(-c2cccc(F)c2)c1=O` displayed an RP-LC retention time of 1240 s. `CCc1noc(NC(C)=O)c1-c1ccc(C)c(S(=O)(=O)NCc2ccccc2OC)c1` came in with an RP-LC retention time of 827 s.

As for `CCOc1ccc(-c2ccc(=O)n(Cc3nc(-c4ccccn4)no3)n2)cc1`, the RP-LC retention time stood at 813 s.

Molecule `Cn1cccc1Cc1nnc(SCC(=O)NO)n1Cc1ccccc1` showed an RP-LC retention time of 621 s. For `CC(CCc1ccccc1)NC(=O)C1CCN(S(=O)(=O)c2ccc3c(ccn3C)c2)CC1` (stereo unspecified), the RP-LC retention time was 882 s. To `O=C(Cn1cccc1-c1nc(-c2ccccc2)no1)N1CCCc2ccccc21` belongs 1210 s.

On to `Brc1ccc2nc(-c3ccccc3)c(Nc3ccc4c(c3)OCO4)n2c1`, for which the RP-LC retention time was found to be 748 s.

`CC(C)c1ccc(S(=O)(=O)N2CC=C(c3cn(C)c4ncccc34)CC2)cc1` yielded an RP-LC retention time of 1130 s. Molecule `O=C(NCC(=O)N1CCN(c2ncccn2)CC1)c1c[nH]c2ccccc12` had an RP-LC retention time of 615 s. In the case of `O=C(c1ccc(F)c(Cl)c1)N1CCN(c2cc(-c3cccs3)[nH]n2)CC1`, the RP-LC retention time amounted to 800 s. Turning to `Cc1ccc(CNC(=O)COc2ccccc2-c2nnc(-c3ccccc3)o2)o1`, the RP-LC retention time was 1040 s. In the case of `Cc1cc(C)cc(NC(=O)C2CCN(S(=O)(=O)c3ccc4c(c3)sc(=O)n4C(C)C)CC2)c1`, the RP-LC retention time stood at 1070 s. Molecule `CCCCC(=O)Nc1ccc2nc(N3CCN(c4cc(Cl)ccc4C)CC3)cc(C(=O)O)c2c1` registered an RP-LC retention time of 851 s. On to `Cc1cc(C)c2c(N3CCOCC3)nc(C(=O)NCCN3CCCCCC3)nc2n1`, for which the RP-LC retention time worked out at 555 s.

In turn, `COc1cccc(Nc2cc(C(=O)N3CCSCC3)nc3ccc(C)cc23)c1` had an RP-LC retention time of 694 s. Regarding `CCCN(CC1CCOC1)C(=O)Nc1ccccc1Cl` (stereo unspecified), the RP-LC retention time stood at 846 s. The same measure for `CN(C(=O)Cn1nc(Cc2ccncc2)c2ccccc2c1=O)c1cccc(Cl)c1`: 644 s; for `Cn1c(C(O)c2ccccc2)nc2ccccc21` (stereo unspecified): 545 s. Molecule `CC1CCN(C(=O)c2cc3c(s2)CCC(C(=O)N2CCCC2)C3)CC1` (stereo unspecified) registered an RP-LC retention time of 849 s. To `Cc1nc(OCC(=O)Nc2ccc(Cl)cc2F)c2ccccc2n1` belongs 789 s. Regarding `O=C(Nc1nnc(SCc2ccccc2F)s1)c1ccccc1C(F)(F)F`, the RP-LC retention time stood at 944 s. `CCOC(=O)C1CCN(C(=O)c2ccc3c(c2)NC(=O)C2CCCCN32)CC1` (stereo unspecified) gave an RP-LC retention time of 554 s.

Take `Cc1nc(-c2cc(S(=O)(=O)Nc3ccc(F)cc3Cl)c(C)s2)cs1`: the RP-LC retention time is 1050 s. Molecule `CCCN1CCN(C(=O)c2ccc(S(=O)(=O)c3ccccc3)s2)CC1` showed an RP-LC retention time of 630 s. On to `CC1Oc2ccc(-c3csc(NC(=O)C4CC4)n3)cc2N(C)C1=O` (stereo unspecified), for which the RP-LC retention time is 787 s. To `CC(C)NC(=O)CN1CCN(c2ncc(C(=O)NCc3ccccc3)c(N)n2)CC1` belongs 593 s; to `Cc1ccc(-c2nc3n(CC(=O)N4CCCC4)c4c(c(=O)n3n2)CCC4)cc1`, 752 s. `O=C1C2N=NN(Cc3nc(-c4cccc(Br)c4)no3)C2C(=O)N1c1ccc2c(c1)CCC2` (stereo unspecified): the RP-LC retention time stood at 1130 s. `O=C(NCCn1c(CCc2ccccc2)nc2cccnc21)c1cccs1` yielded an RP-LC retention time of 687 s. The molecule `Cc1ccc(N2CC(c3noc(-c4ccc(C#N)cc4)n3)CC2=O)cc1` (stereo unspecified) yielded an RP-LC retention time of 947 s. Turning to `c1ccc(-c2nc[nH]c2-c2ccccc2)cc1`, the RP-LC retention time was found to be 696 s.

Molecule `CCOc1ccc(S(=O)(=O)N2CCCC(C(=O)NCc3ccccc3)C2)cc1` (stereo unspecified) yielded an RP-LC retention time of 878 s. For the molecule `O=C(Cc1ccc(Cl)cc1)NC1CCN(c2ccc(F)cc2)C1=O` (stereo unspecified), the RP-LC retention time worked out at 853 s. The molecule `O=C(CCc1nnn2c1CN(C(=O)c1ccccc1)CC2)NC1CC1` showed an RP-LC retention time of 604 s. The same measure for `Fc1ccccc1CNc1cc(-n2cccn2)ncn1`: 838 s; for `CCn1nccc1C(=O)N1CCCC1c1ccc(OC)cc1` (stereo unspecified): 772 s; for `CN1C(=O)c2cccnc2Sc2cc(C(=O)NCc3ccc(F)cc3)ccc21`: 765 s. For the molecule `COc1ccc(C(=O)N2CCc3ccc(C(=O)Nc4ccc5c(c4)OCCO5)cc32)cc1`, the RP-LC retention time came out at 868 s.

`Fc1ccc(Cn2cc(-c3noc(-c4ccc5c(c4)OCO5)n3)nn2)cc1` came in with an RP-LC retention time of 937 s. The same measure for `O=C(NCC(c1ccco1)N1CCN(c2ccc(F)cc2)CC1)c1ccsc1` (stereo unspecified): 603 s; for `CCOc1ccc(Cl)cc1S(=O)(=O)N1CCC(C(=O)Nc2ccccc2C(=O)OC)CC1`: 1150 s; for `Cc1oc(-c2ccc(C(=O)NCCCN3CCN(C)CC3)cc2)nc1CSc1ccccc1`: 645 s. `CCCCN1C(=O)CC2CCOC21C` (stereo unspecified) gave an RP-LC retention time of 753 s. The molecule `CN1C(=O)C(CC(=O)N2CCCC2)Sc2ncccc21` (stereo unspecified) yielded an RP-LC retention time of 626 s.

`COc1ccc2c(c1)CCCN2C(N)=Nc1ccc(Cl)cc1`: the RP-LC retention time amounted to 753 s. As to `CCOC(=O)c1nc(Nc2ccc(OCC)cc2)c2ccccc2n1`, the RP-LC retention time is 806 s. Molecule `O=C(COc1cccc(Cl)c1)Nc1nc(-c2ccc(Br)cc2)cs1` had an RP-LC retention time of 1260 s. The same measure for `Cc1ccc(CNC(=O)c2cc3sc(C)c(CN4CCOCC4)c3[nH]2)o1`: 656 s. The same measure for `COc1ccccc1CNc1c(-c2nc(C(C)C)no2)cnc2nc(C)ccc12`: 797 s; for `CC(=O)OCOC(c1ccc2ccccc2c1)P(=O)(OCOC(C)=O)OCOC(C)=O` (stereo unspecified): 854 s. `CCCN1C(=O)C2CCC(=O)N2c2ccc(C(=O)NC(C)(C)CC)cc21` (stereo unspecified) had an RP-LC retention time of 812 s. Turning to `Cc1cc(C)n(CCN(C(=O)c2ccc([N+](=O)[O-])s2)c2nc3ccccc3s2)n1`, the RP-LC retention time turned out to be 1020 s.

On to `Cc1cc(C(=O)N2CCC(N3CCCCC3)CC2)c2cc(Br)ccc2n1`, for which the RP-LC retention time worked out at 586 s.

Molecule `O=C(NCC(F)F)c1cc2c(s1)N(CC1CC1)CCCC2` displayed an RP-LC retention time of 1000 s. With `Cc1csc(-c2ccc(N3CCN(C(=O)c4cc(F)ccc4F)CC3)nc2)n1`, the RP-LC retention time came out at 996 s. Molecule `CCn1c(=O)c(C)nc2cc(-c3noc(C4CC(=O)N(c5ccc(C)cc5)C4)n3)ccc21` (stereo unspecified) returned an RP-LC retention time of 884 s. `CCCNC(=O)N1CCN(Cc2nc3cccnc3n2-c2cc(C)cc(C)c2)CC1` displayed an RP-LC retention time of 656 s. As for `Cc1cccc(-n2nnc(C(=O)O)c2-c2ccncc2)c1`, the RP-LC retention time came out at 620 s.

Take `COc1ccc(C(=O)N2CCC3(C2)C(=O)Nc2ccccc23)cc1OC` (stereo unspecified): the RP-LC retention time is 657 s. The same measure for `CCN1CCN(c2nc(F)c(F)c(S(=O)(=O)CCNc3cccc(C(F)(F)F)c3)c2F)CC1`: 731 s; for `COc1cccc(CNC(=O)CN2CCN(Cc3ccc(C)cc3)C(=O)C2=O)c1`: 715 s. Molecule `CSc1ccc(-c2noc(CN3C(=O)COc4ccccc43)n2)cc1` showed an RP-LC retention time of 1110 s.

`CCc1cc(C(=O)Nc2ccc(F)cc2C)nc2ccnn12` registered an RP-LC retention time of 1140 s.

In turn, `O=C(Nc1ccc(F)cc1)C1CC(=O)N(c2n[nH]c3cccc(F)c23)C1` (stereo unspecified) registered an RP-LC retention time of 740 s. `CCOC(=O)Cn1c(-c2nnc(C)o2)cc2ccccc21`: the RP-LC retention time amounted to 827 s.
